In this experiment the target is T1, XtrD (Aspergillus nidulans, UniProt Q5BGT0).
T1 construct: gene ANIA_00250; full-length xtrD in modified vector pRH195 (HXT7 promoter), expressed in S. cerevisiae EBY.VW4000 lacking hexose transporters
T1 sequence (Q5BGT0 1-547): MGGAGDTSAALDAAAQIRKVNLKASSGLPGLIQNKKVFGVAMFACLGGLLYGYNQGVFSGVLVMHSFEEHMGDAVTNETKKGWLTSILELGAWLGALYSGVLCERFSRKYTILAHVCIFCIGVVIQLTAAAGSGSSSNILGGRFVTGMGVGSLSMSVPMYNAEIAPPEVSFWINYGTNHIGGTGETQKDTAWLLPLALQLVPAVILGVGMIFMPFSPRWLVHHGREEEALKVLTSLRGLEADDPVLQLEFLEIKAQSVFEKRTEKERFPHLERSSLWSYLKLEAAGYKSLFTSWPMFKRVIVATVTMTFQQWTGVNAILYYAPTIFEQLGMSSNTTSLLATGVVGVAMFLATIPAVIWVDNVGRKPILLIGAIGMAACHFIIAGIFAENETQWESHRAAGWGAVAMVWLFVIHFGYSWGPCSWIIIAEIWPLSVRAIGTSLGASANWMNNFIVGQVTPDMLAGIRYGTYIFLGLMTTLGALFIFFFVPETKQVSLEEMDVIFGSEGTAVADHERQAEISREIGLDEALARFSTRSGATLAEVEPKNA
Description: competition of […]glucose uptake in S. cerevisiae EBY.VW4000 expressing xtrD. The conditions noted are these: 10- and 20-fold excess unlabeled xylose over glucose, respectively; 5 s uptake, 30 °C. It is filed as cell-based.

For the molecule `OC1OC[C@@H](O)[C@H](O)[C@H]1O` (stereo partly shown) [xylose], the “% inhibition of radiolabeled glucose transport at 10- and 20-fold excess” value is on record as 90% to 100%.

These data come from PMC4021826, “Functional characterization of a xylose transporter in Aspergillus nidulans” (Biotechnology for Biofuels, 2014).
